Assay results taken from patent EP4574152A1, “POTASSIUM CHANNEL ACTIVATORS FOR USE IN THE TREATMENT OF EPILEPTIC DISORDERS” (Fraunhofer-Gesellschaft zur Förderung der angewandten …, priority 2023, dated 2025).
Where two headings read alike, the source gives them in different places.

Assays:
[1] = molecular target: T1, Kv7.3 A315T (Homo sapiens, UniProt O43525, A315T); assay: fluorescence-based thallium flux assay (FluxOR) in CHO cells stably transfected with Kv7.3 A315T; type: cell-based; settings: for maximum activities: relative to retigabine
T1 construct: expressed in transfected cells; host or cells: CHO, transient
Description: The Fraunhofer repurposing library was initially screened in a cellular model represented by Chinese hamster ovary cells (CHO) stably transfected with a variant of the Kv7.3 channel (carrying the mutation A315T to enhance current size and increase the signal-to-noise ratio). The Kv7.3 A315T cell line was used in a fluorescence-based thallium flux assay (FluxOR, Thermofisher) optimized as a read-out for Kv7 channel function, using retigabine as a positive control.
Compounds in the Fraunhofer repurposing library were tested in Kv7.3 A315T-expressing cells at 10 µM and their Kv7 opening effect was compared to that observed with 10 µM retigabine.

[2] = molecular target: T1, Kv7.3 A315T; assay: whole-cell patch-clamp in CHO cells transiently transfected with Kv7.3 A315T cDNA; type: cell-based
Protocol: (§1) JNJ-37822681 efficacy in opening Kv7 channels was further investigated through the whole-cell patch-clamp electrophysiological technique, the gold standard technique for investigating ion channels activity and pharmacological modulation.
In order to better evaluate the quantitative differences occurring in Kv7-opening ability between retigabine, and JNJ-37822681, dose-response experiments (0.01-30 µM) were performed to calculate EC50s using the functional parameters of ΔV1/2 (Figure 1C).

[3] = tested on: PTZ-induced seizures; assay: PTZ-induced seizures in mice; type: in vivo, C57BL/6J mice; settings: for ED50: Mus musculus, ip; for ED50 Values (mg/Kg) Clonus / ED50 Values (mg/Kg) Tonus: i.p.
Protocol: (§2) JNJ-37822681 was tested in two animal models of acute seizures widely used for the evaluation of new ASMs: 1. a mouse model of generalized myoclonic seizures such as acute exposure to the GABAA receptor antagonist pentylenetetrazol (PTZ); 2. audiogenic seizures induced in genetically epilepsy-prone DBA/2 mice.
(§3) In both animal models, retigabine or JNJ-37822681 were administered i.p, 30 minutes before seizures induction with PTZ or sounds.

[4] = molecular target: T2, Kv7.2 channels carrying the W236L mutation (Homo sapiens, UniProt O43526, W236L); assay: patch-clamp on homomeric Kv7.2 channels carrying the W236L mutation; type: cell-based; settings: 10 µM
T2 construct: expressed in transfected cells

[5] = molecular target: T3, Kv7.2+Kv7.3 channels (Homo sapiens, UniProt O43525+O43526); assay: whole-cell patch-clamp in CHO cells expressing Kv7.2+Kv7.3 channels; type: cell-based; settings: calculated from dose-response curves, Kv7.2/7.3 currents
T3 construct: expressed in transfected cells; host or cells: CHO
Description: as §1

[6] = tested on: audiogenic seizures; assay: audiogenic seizures in DBA/2 mice; type: in vivo; settings: limits in brackets; for ED50: Mus musculus, ip; for ED50 Values (mg/Kg) Clonus / ED50 Values (mg/Kg) Tonus / ED50 Values (mg/Kg) Wild Running: i.p.
Protocol: as §2, §3

[7] = 30 minutes before seizures induction with PTZ, limits in brackets
[8] = 30 minutes before seizures induction with sounds

`Fc1ccc(CN2CCC(Nc3ccc(C(F)(F)F)nn3)CC2)cc1F` [JNJ-37822681, N-[1-[(3,4-difluorophenyl)methyl]-4-piperidinyl]-6-(trifluoromethyl)-3-pyridazinamine] showed a maximum activities ([1]; FluxOR assay) of 83.8%, an EC50 ([1]; FluxOR assay, ten-point dose-response curve from 0.5 nM to 10 µM, read-out: EC50) of 140 nM and an EC50 ([2]; calculated from ΔV1/2, dose-response 0.01-30 µM, read-out: EC50) of 2000 ± 30 nM. The “maximal ΔV1/2” value ([2]; dose-response 0.01-30 µM) was 37.0±5.4 mV, the “leftward shift of the channel voltage-dependence of activation (ΔV1/2)” value ([2]; perfusion with 1 µM) was “qualitatively similar effects” and the ED50 ([3]; 30 minutes before seizures induction with PTZ, limits in brackets, read-out: ED50 Values (mg/Kg) Clonus) was 15 mg/kg. The ED50 ([3]; 30 minutes before seizures induction with PTZ, limits in brackets, read-out: ED50 Values (mg/Kg) Tonus) was 9 mg/kg, the “ED50 Values (mg/Kg) Clonus” value [3, 7] was 15 (12-18) mg/Kg and the “ED50 Values (mg/Kg) Tonus” value [3, 7] was 9 (6-13) mg/Kg. For the same molecule, the “activation of Kv7.2 channels carrying the W236L mutation” value [4] was “failed to activate”, the EC50 [5] was 1200 ± 300 nM and the ED50 ([6]; 30 minutes before seizures induction with sounds, read-out: ED50 Values (mg/Kg) Clonus) was 6 mg/kg. The ED50 ([6]; 30 minutes before seizures induction with sounds, read-out: ED50 Values (mg/Kg) Tonus) was 3 mg/kg, the ED50 ([6]; 30 minutes before seizures induction with sounds, read-out: ED50 Values (mg/Kg) Wild Running) was 11 mg/kg and the “ED50 Values (mg/Kg) Clonus” value [6, 8] was 6 (5-9) mg/Kg. The “ED50 Values (mg/Kg) Tonus” value [6, 8] was 3 (2-5) mg/Kg and the “ED50 Values (mg/Kg) Wild Running” value [6, 8] was 11 (8-13) mg/Kg.
In the case of `CCOC(=O)Nc1ccc(NCc2ccc(F)cc2)cc1N` [retigabine, reference compound], the EC50 [1] is reported as 300 nM, the maximum activities ([1]; FluxOR assay) is reported as 100% and the EC50 [2] is reported as 600 ± 100 nM. The ED50 ([3]; read-out: ED50 Values (mg/Kg) Clonus) was 13 mg/kg, the ED50 ([3]; read-out: ED50 Values (mg/Kg) Tonus) was 9 mg/kg and the “ED50 Values (mg/Kg) Clonus” value [3, 7] was 13 (9.2-18.5) mg/Kg. The “ED50 Values (mg/Kg) Tonus” value [3, 7] was 9 (7-12) mg/Kg, the ED50 ([6]; read-out: ED50 Values (mg/Kg) Clonus, i.p., 30 minutes before seizures induction with sounds) was 7 mg/kg and the ED50 ([6]; read-out: ED50 Values (mg/Kg) Tonus, i.p., 30 minutes before seizures induction with sounds) was 4.6 mg/kg. The ED50 ([6]; read-out: ED50 Values (mg/Kg) Wild Running, i.p., 30 minutes before seizures induction with sounds) was 12 mg/kg, the “ED50 Values (mg/Kg) Clonus” value [6, 8] was 6.9 (4.3-11) mg/Kg and the “ED50 Values (mg/Kg) Tonus” value [6, 8] was 4.6 (3.6-6) mg/Kg. For the same molecule, the “ED50 Values (mg/Kg) Wild Running” value [6, 8] was 12.4 (9-17.3) mg/Kg.
